Results on 2 compounds are retold here after PMC5577655 (mSphere, 2017).

Structures are written as SMILES. Where two headings read alike, the source gives them in different places.

In assay [1] the target is T1, lysyl-tRNA synthetase 1 (LdLysRS-1) (Leishmania donovani, UniProt A0A3Q8IA00).
T1 construct: gene LdCL_150007600; full-length LdLysRS-1 (586 aa), N-terminal His6 tag
The assay can be described thus: malachite green aminoacylation assay with recombinant enzyme; thermal shift of ~[…]°C. The class given is biochemical.

Assay [2] has as its target T1, lysyl-tRNA synthetase 1 (LdLysRS-1). The description is as above. Format: biochemical. The source holds these as a separate data set.

T1 sequence (A0A3Q8IA00 entry or part of it): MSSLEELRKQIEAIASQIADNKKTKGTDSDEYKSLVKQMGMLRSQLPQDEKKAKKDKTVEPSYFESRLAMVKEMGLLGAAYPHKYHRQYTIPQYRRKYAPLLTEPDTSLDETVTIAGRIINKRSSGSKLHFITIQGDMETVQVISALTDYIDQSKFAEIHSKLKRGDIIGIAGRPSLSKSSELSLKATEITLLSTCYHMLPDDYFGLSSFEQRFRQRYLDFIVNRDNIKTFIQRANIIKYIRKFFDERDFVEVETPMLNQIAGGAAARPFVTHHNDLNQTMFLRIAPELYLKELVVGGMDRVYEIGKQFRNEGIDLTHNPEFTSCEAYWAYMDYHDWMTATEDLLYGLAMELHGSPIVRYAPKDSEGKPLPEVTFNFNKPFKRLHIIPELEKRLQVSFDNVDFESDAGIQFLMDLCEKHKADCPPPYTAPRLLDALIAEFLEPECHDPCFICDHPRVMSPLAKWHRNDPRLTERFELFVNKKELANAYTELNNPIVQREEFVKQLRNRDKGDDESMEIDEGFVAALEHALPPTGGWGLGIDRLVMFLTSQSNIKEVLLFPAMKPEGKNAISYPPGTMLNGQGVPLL

By IC50 is commonly meant the midpoint of a concentration-inhibition curve. With `C[C@@H]1CCC[C@H](C[C@@H]2Cc3cc(O)cc(O)c3C(=O)O2)O1` [3-epi-isocladosporin], the IC50 in assay [1] is approximately 25.5 µM.

With `C[C@H]1CCC[C@H](C[C@H]2Cc3cc(O)cc(O)c3C(=O)O2)O1` [cladosporin], the IC50 in assay [2] was approximately 4.07 µM.
